Laboratory results reported in patent publication US6620790B2, “Isolated arachidonic acid-binding heteromer and its use in cosmetics and pharmaceutics” (Societe L'Oreal S.A., priority 1909, dated 2003).

T1: arachidonic acid-binding heteromer (non-covalent complex of two MRP8 sub-units, SEQ ID NOs: 1-2, and one MRP14 sub-unit, SEQ ID NOs: 3-4; approx. 34 kDa), isola (Homo sapiens, UniProt P05109+P06702)
T1 construct: conventional steps of protein extraction from biological tissues, more specifically from skin tissues; from tissue; host or cells: psoriasis scales (human keratinocytes), membrane pellet extracted with KCl buffer
T1 sequence (P05109 1-93) 1: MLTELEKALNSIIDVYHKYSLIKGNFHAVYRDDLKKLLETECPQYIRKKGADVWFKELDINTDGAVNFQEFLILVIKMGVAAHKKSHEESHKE
T1 sequence (P05109 1-93) 2: T1 sequence (P05109 1-93) 1
T1 sequence (P06702 2-114 limits assumed): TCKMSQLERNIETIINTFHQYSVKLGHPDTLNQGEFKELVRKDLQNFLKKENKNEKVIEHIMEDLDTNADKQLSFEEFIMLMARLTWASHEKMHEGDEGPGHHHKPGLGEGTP

T2: arachidonic acid-binding heteromer (non-covalent complex of two MRP8 sub-units, SEQ ID NOs: 1-2, and one MRP14 sub-unit, SEQ ID NOs: 3-4) (Homo sapiens, UniProt P05109+P06702)
T2 construct: no tag
T2 sequence (P05109 1-93): T1 sequence (P05109 1-93) 1
T2 sequence (P06702 1-114): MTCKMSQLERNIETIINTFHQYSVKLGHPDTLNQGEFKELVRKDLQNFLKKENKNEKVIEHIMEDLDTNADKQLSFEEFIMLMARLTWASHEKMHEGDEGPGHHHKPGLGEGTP

T3: MRP14 (migration inhibitory factor related protein 14) (human, UniProt P06702 1-114)
T3 construct: Sub-unit of the heteromer, seen by SDS-PAGE of the purified native complex; also called MRP14 sub-unit
T3 sequence: T2 sequence (P06702 1-114)

B1: MRP8 (migration inhibitory factor related protein 8) (other)
chain: T1 sequence (P05109 1-93) 1
notes: Sub-unit of the heteromer, seen by SDS-PAGE of the purified native complex; also called MRP8 sub-unit

Assays:
[1] = test system: E-FABP (epidermal fatty acid-binding protein) of keratinocytes; conditions: Siegenthaler, G. et al. (1994) Biochem. J. 302, 363-371; cited from earlier work
[2] = molecular target: T1, arachidonic acid-binding heteromer (non-covalent complex of two MRP8 sub-units, SEQ ID NOs: 1-2, and one MRP14 sub-unit, SEQ ID NOs: 3-4; approx. 34 kDa), isola; assay: dissociation constant by carbon-dextran technique with radiolabelled ligand, Scatchard plot; conditions: comparison with E-FABP (Siegenthaler et al. 1994)
Method: These dissociation constants are obtained by carrying out measurements using the carbon-dextran technique. This technique is as follows: aliquot portions of 0.5 μg of heteromer in solution in 100 μl of Tris buffer (50 mM Tris/HCl, 25 mM NaCl, 2.5 mM EDTA, 1 mM DTT at pH 7.5) containing 0.5% of gelatin and 1% of DMSO are incubated for 1 hour at 37° C. in the presence of increasing quantities of radiolabelled ligand, i.e, 0-10 μM for the oleic acid and the arachidonic acid. Then, each aliquot portion is treated with 50 μl a mixture of carbon-dextran T40® (5% and 0.05% respectively) at 0° C. for 10 minutes, then centrifuged at 10000 g and the radioactivity of the supernatant is measured. A saturation curve is established, and the Kd is calculated using the Scatchard plot.
(§1) More particularly, this heteromer consists of two MRP8 sub-units and one MRP14 sub-unit. These two proteins, MRP8 and MRP14, are in particular described in the Odink et al., (1987) Nature 330, 80-82 publication.
(§2) The purification process of the heteromer that is implemented consists specifically of the following steps: approximately 5 g of psoriasis scales are homogenized in 15 ml of Tris/HCl buffer using a homogenizer (Polytron) then, the mixture is centrifuged at 100000 g for 1 hour at 4° C. The pellet is collected and suspended in 5 ml of the same buffer and centrifuged at 10000 g. The supernatant is eliminated. […]

[3] = molecular target: T1, arachidonic acid-binding heteromer (non-covalent complex of two MRP8 sub-units, SEQ ID NOs: 1-2, and one MRP14 sub-unit, SEQ ID NOs: 3-4; approx. 34 kDa), isola; assay: binding of radiolabelled ligand to heteromer by gel filtration (Superose 12, HPLC)
Method: Indeed, when a determined quantity of heteromer in solution is incubated in the presence of 600 nM of radiolabelled arachidonic acid, then analyzed through a filtration column over gel [(Superose 12) balanced with a Tris/HCl buffer containing 0.2M NaCl and connected to a HPLC], the radioactive peak that co-elutes elutes at 34 kDa and corresponds to the radiolabelled arachidonic acid-heteromer complex is 1.5 times greater than if the experiment were performed in the same conditions, but with 600 nM of radiolabelled oleic acid.
as §1
as §2, with “eliminated. This washing operation is carried out two more times.” for “eliminated.”

[4] = molecular target: T2, arachidonic acid-binding heteromer (non-covalent complex of two MRP8 sub-units, SEQ ID NOs: 1-2, and one MRP14 sub-unit, SEQ ID NOs: 3-4); assay: binding of linoleic acid to the heteromer (method not given)
[5] = molecular target: T3, MRP14 (migration inhibitory factor …); assay: gel filtration (34 kDa, non-denaturing) against SDS-PAGE of the purified heteromer
Method: The fractions that co-elute with the radioactive peak are gathered, dialyzed through a 20 mM Tris/HCl buffer, pH of 8.0 and the solution is concentrated. This solution is passed through a […] ion exchange column (Resource Q) balanced with the last buffer. The elution in the form of a gradient is performed with this Tris buffer containing 0.5M of NaCl. In the same way as above, the column has been standardized and only the proteins that co-elute with the radioactive peak are gathered, dialyzed through a 100 mM sodium phosphate buffer with a pH of 7.0 and concentrated The last purification step is carried out on a filtration column (Superose 12) balanced with the phosphate buffer. The protein peak that elutes at 34 kDa corresponds to the purified heteromer.

| Molecule | affinity for fatty acids (in words) [1] | also measured |
| --- | --- | --- |
| CCCCCCCCCCCCCCCCCC(=O)O [stearic acid] | strong affinity |  |
| CC/C=C\C/C=C\C/C=C\CCCCCCCC(=O)O [linolenic acid] | strong affinity |  |
| CCCCCCCC/C=C\CCCCCCCC(=O)O [oleic acid] | strong affinity | dissociation constant in relation to oleic acid compared with that of E-FABP for the same ligand [2]: less than that of the E-FABP |
| CCCCC/C=C\C/C=C\C/C=C\C/C=C\CCCC(=O)O [arachidonic acid] | weak or nonexistent affinity | radioactive peak of ligand-heteromer complex, ratio arachidonic acid to oleic acid ([3]; 600 nM radiolabelled arachidonic acid vs 600 nM radiolabelled oleic acid, peak at 34 kDa): 1.5 times; quantity of arachidonic acid bound relative to oleic acid ([3]; up to, general statement): up to 1.5 times |
| CCCCC/C=C\C/C=C\CCCCCCCC(=O)O [linoleic acid] | strong affinity | binding (in words) [4]: binds |
| B1 |  | binding result [5]: binds |
